Measured values published in ChEMBL document CHEMBL5096151, “Phytocannabinoid Pharmacology: Medicinal Properties of Cannabis sativa Constituents Aside from the "Big Two"” (J Nat Prod, 2021).

Key:
Cannabinoid receptor 2 [1] = biological target: T1, Cannabinoid receptor 2 (Homo sapiens, UniProt P34972); test: Agonist activity at human CB2 receptor transfected in CHO cells assessed as inhibition of cyclic AMP production; format: functional, cell-based
[2] = biological target: 5-hydroxytryptamine receptor 1A (Homo sapiens) (UniProt P08908); test: Displacement of [35S]GTPgammaS from 5HT1A in […] by measuring efficacy incubated for 60 mins by radioligand binding assay relative to control; format: cell-based
[3] = biological target: Transient receptor potential cation channel subfamily V member 5 (Homo sapiens, UniProt Q9NQA5); test: Inhibition of TRPV5 channel (unknown origin) by Patch-clamp assay
[4] = biological target: T2, Transient receptor potential cation channel subfamily V member 4 (Homo sapiens, UniProt Q9HBA0); test: Agonist activity at ionomycin-stimulated TRPV4 (unknown origin) activation assessed as efficacy relative to control; conditions: filed as agonist
[5] = biological target: Transient receptor potential cation channel subfamily M member 8 (Homo sapiens, UniProt Q7Z2W7); test: Antagonist activity at TRPM8 (unknown origin) ion channel
[6] = biological target: T3, Transient receptor potential cation channel subfamily A member 1 (Homo sapiens, UniProt O75762); test: Agonist activity at TRPA1 (unknown origin) channel desensitization in presence of isothiocyanate
[7] = biological target: Transient receptor potential cation channel subfamily V member 6 (Homo sapiens, UniProt Q9H1D0); test: Inhibition of TRPV6 channel (unknown origin) by Patch-clamp assay
[8] = biological target: T4, Transient receptor potential cation channel subfamily V member 1 (Homo sapiens, UniProt Q8NER1); test: Agonist activity at ionomycin-stimulated TRPV1 (unknown origin) channel desensitization in presence of capsaicin
[9] = biological target: 5-hydroxytryptamine receptor 1A (Homo sapiens, UniProt P08908); test: Displacement of [35S]GTPgammaS from 5HT1A in […] incubated for 60 mins by radioligand binding assay; format: cell-based
Cannabinoid receptor 2 [10] = biological target: T1, Cannabinoid receptor 2; test: Agonist activity at CB2 receptor (unknown origin) expressed in CHO cell membranes assessed as increase in [35S]GTPgammaS binding by measuring efficacy incubated for 60 mins by liquid scintillation spectrometry analysis relative to control; format: functional; conditions: Membrane, filed as agonist
[11] = biological target: T4, Transient receptor potential cation channel subfamily V member 1; test: Agonist activity at ionomycin-stimulated TRPV1 (unknown origin) activation
[12] = biological target: T3, Transient receptor potential cation channel subfamily A member 1; test: Agonist activity at TRPA1 (unknown origin) activation assessed as efficacy relative to control; conditions: filed as agonist
[13] = biological target: T2, Transient receptor potential cation channel subfamily V member 4; test: Agonist activity at ionomycin-stimulated TRPV4 (unknown origin) channel desensitization in presence of 4alphaPDD
[14] = biological target: T2, Transient receptor potential cation channel subfamily V member 4; test: Agonist activity at ionomycin-stimulated TRPV4 (unknown origin) activation
[15] = biological target: T3, Transient receptor potential cation channel subfamily A member 1; test: Agonist activity at TRPA1 (unknown origin) channel desensitization in presence of icilin
[16] = biological target: T3, Transient receptor potential cation channel subfamily A member 1; test: Agonist activity at TRPA1 (unknown origin) ion channel
[17] = biological target: T5, Transient receptor potential cation channel subfamily V member 2 (Homo sapiens) (UniProt Q9Y5S1); test: Agonist activity at ionomycin-stimulated TRPV2 (unknown origin) activation assessed as efficacy relative to control; conditions: filed as agonist
T5 sequence (whole entry): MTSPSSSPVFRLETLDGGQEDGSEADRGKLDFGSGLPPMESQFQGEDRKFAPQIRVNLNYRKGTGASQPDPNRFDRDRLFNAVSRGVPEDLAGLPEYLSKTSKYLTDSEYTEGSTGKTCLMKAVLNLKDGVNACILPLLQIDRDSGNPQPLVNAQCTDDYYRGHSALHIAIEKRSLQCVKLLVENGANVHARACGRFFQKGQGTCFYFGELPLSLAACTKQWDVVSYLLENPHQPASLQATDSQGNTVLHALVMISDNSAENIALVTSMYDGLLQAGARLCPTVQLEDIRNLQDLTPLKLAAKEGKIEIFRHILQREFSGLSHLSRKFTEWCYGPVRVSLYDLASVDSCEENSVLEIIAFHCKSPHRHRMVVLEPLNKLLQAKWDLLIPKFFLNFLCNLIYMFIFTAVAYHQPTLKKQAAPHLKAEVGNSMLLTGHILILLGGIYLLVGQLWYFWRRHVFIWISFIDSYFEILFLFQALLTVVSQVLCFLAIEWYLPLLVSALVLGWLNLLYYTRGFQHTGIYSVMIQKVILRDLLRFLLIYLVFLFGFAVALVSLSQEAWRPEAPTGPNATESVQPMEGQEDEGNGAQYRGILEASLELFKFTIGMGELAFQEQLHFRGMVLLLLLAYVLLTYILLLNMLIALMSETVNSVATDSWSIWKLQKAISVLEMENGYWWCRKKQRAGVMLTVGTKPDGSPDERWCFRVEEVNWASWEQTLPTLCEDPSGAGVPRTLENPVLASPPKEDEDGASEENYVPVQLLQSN

[18] = biological target: T6, G-protein coupled receptor 55 (Homo sapiens, UniProt Q9Y2T6); test: Antagonist activity at GPR55 (unknown origin) expressed in HEK293 cells assessed as LPI-stimulated ERK1/2 phosphorylation; format: functional, cell-based
Cannabinoid receptor 1 [19] = biological target: Cannabinoid receptor 1 (Homo sapiens, UniProt P21554); test: Binding affinity to CB1 (unknown origin) receptor assessed as inhibition constant
Cannabinoid receptor 2 [20] = biological target: T1, Cannabinoid receptor 2; test: Agonist activity at CB2 receptor (unknown origin) expressed in CHO cell membranes assessed as increase in [35S]GTPgammaS binding incubated for 60 mins by liquid scintillation spectrometry analysis; format: functional, Membrane
[21] = biological target: T4, Transient receptor potential cation channel subfamily V member 1; test: Agonist activity at ionomycin-stimulated TRPV1 (unknown origin) activation assessed as efficacy relative to control; conditions: filed as agonist
[22] = biological target: T7, Transient receptor potential cation channel subfamily V member 3 (Homo sapiens) (UniProt Q8NET8); test: Agonist activity at ionomycin-stimulated TRPV3 (unknown origin) activation assessed as efficacy relative to control; conditions: filed as agonist
T7 sequence (whole entry): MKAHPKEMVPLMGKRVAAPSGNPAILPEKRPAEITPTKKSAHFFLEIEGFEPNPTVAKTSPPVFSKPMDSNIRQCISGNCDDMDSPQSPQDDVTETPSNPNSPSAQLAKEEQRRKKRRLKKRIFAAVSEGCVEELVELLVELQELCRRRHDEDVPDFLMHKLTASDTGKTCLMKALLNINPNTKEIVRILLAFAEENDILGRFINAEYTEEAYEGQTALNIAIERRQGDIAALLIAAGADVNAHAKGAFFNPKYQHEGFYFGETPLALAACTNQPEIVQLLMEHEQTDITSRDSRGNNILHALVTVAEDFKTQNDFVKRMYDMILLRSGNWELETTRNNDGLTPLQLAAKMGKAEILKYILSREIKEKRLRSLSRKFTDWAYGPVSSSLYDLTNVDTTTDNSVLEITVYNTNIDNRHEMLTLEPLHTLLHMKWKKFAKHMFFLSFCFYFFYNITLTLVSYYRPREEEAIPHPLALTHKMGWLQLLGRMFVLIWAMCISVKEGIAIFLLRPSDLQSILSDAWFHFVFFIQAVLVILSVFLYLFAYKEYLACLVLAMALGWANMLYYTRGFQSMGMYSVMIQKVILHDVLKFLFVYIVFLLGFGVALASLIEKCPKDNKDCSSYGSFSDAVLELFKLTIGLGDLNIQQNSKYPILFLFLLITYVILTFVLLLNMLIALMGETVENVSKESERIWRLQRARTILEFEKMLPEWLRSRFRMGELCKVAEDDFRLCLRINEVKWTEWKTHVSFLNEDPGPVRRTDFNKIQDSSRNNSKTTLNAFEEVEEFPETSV

[23] = biological target: T3, Transient receptor potential cation channel subfamily A member 1; test: Agonist activity at TRPA1 (unknown origin) activation
[24] = biological target: T8, Transient receptor potential cation channel subfamily V member 3 (Homo sapiens, UniProt Q8NET8); test: Agonist activity at ionomycin-stimulated TRPV3 (unknown origin) channel desensitization in presence of carvacrol
T8 sequence (Q8NET8 whole entry): T7 sequence (whole entry)

[25] = biological target: 5-hydroxytryptamine receptor 1A (Rattus norvegicus, UniProt P19327); test: Displacement of [35S]GTPgammaS from 5HT1A in Sprague-Dawley rat brainstem incubated for 60 mins by radioligand binding assay; format: tissue-based
[26] = biological target: T9, Transient receptor potential cation channel subfamily V member 2 (Homo sapiens, UniProt Q9Y5S1); test: Agonist activity at ionomycin-stimulated TRPV2 (unknown origin) channel desensitization in presence of lysophosphatidylcholine
T9 sequence (Q9Y5S1 whole entry): T5 sequence (whole entry)

[27] = biological target: 5-hydroxytryptamine receptor 1A (Rattus norvegicus) (UniProt P19327); test: Displacement of [35S]GTPgammaS from 5HT1A in Sprague-Dawley rat brainstem by measuring efficacy incubated for 60 mins by radioligand binding assay relative to control; format: tissue-based
[28] = biological target: T8, Transient receptor potential cation channel subfamily V member 3; test: Agonist activity at ionomycin-stimulated TRPV3 (unknown origin) activation
[29] = biological target: T6, G-protein coupled receptor 55; test: Antagonist activity at GPR55 (unknown origin) expressed in HEK293 cells assessed as LPI-stimulated ERK1/2 phosphorylation by measuring efficacy relative to control; format: functional, cell-based; conditions: filed as antagonist
Cannabinoid receptor 1 [30] = biological target: Cannabinoid receptor 1 (Mus musculus, UniProt P47746); test: Agonist activity at CB1 receptor in albino MF1 mouse vas deferens assessed as inhibition of electrically evoked vas deferens contraction by incubated for 13 mins followed by electrical stimulation for 2 mins; format: functional
Cannabinoid receptor 2 [31] = biological target: T1, Cannabinoid receptor 2; test: Inhibition of human CB2 receptor; format: functional; conditions: concentration not given here
[32] = biological target: T9, Transient receptor potential cation channel subfamily V member 2; test: Agonist activity at ionomycin-stimulated TRPV2 (unknown origin) activation
[33] = biological target: T4, Transient receptor potential cation channel subfamily V member 1; test: Agonist activity at TRPV1 (unknown origin) ion channel

T3 sequence (O75762 whole entry): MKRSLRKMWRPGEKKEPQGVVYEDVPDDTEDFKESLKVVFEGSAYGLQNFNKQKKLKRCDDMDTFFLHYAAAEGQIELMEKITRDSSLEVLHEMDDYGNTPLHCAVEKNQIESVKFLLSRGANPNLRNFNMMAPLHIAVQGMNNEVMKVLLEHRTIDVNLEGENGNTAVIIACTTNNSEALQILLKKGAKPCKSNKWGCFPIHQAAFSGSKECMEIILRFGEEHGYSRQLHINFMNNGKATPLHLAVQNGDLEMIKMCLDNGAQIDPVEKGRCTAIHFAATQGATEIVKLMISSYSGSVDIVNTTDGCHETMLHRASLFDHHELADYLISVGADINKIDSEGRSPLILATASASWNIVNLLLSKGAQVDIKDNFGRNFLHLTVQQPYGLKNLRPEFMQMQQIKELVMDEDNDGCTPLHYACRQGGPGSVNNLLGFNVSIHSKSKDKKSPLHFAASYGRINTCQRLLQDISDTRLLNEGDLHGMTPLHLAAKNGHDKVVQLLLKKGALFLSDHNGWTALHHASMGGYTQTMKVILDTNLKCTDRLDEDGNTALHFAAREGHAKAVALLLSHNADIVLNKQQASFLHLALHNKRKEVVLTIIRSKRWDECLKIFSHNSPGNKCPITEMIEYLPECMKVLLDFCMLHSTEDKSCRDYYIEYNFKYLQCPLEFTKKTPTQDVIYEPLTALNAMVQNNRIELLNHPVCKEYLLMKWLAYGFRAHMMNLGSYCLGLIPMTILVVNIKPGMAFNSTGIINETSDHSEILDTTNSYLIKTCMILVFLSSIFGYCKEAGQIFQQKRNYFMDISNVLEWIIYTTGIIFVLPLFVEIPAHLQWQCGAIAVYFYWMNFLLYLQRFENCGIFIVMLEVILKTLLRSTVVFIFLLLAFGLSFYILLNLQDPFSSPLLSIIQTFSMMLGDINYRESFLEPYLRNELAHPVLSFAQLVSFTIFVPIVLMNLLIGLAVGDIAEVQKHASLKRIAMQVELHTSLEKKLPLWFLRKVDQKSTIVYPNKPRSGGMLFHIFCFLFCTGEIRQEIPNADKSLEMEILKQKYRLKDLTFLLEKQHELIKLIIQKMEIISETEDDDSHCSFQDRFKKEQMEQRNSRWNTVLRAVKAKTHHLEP
T1 sequence (P34972 whole entry): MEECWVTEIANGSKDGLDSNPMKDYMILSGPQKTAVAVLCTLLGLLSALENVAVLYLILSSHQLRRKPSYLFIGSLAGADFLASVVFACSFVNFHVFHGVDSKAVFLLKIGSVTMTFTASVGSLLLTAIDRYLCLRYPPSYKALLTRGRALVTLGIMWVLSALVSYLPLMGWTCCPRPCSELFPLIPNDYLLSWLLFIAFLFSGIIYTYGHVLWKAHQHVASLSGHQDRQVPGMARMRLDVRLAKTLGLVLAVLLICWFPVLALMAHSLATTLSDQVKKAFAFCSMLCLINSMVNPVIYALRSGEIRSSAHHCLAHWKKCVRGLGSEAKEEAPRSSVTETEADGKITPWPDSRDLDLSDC
T2 sequence (Q9HBA0 whole entry): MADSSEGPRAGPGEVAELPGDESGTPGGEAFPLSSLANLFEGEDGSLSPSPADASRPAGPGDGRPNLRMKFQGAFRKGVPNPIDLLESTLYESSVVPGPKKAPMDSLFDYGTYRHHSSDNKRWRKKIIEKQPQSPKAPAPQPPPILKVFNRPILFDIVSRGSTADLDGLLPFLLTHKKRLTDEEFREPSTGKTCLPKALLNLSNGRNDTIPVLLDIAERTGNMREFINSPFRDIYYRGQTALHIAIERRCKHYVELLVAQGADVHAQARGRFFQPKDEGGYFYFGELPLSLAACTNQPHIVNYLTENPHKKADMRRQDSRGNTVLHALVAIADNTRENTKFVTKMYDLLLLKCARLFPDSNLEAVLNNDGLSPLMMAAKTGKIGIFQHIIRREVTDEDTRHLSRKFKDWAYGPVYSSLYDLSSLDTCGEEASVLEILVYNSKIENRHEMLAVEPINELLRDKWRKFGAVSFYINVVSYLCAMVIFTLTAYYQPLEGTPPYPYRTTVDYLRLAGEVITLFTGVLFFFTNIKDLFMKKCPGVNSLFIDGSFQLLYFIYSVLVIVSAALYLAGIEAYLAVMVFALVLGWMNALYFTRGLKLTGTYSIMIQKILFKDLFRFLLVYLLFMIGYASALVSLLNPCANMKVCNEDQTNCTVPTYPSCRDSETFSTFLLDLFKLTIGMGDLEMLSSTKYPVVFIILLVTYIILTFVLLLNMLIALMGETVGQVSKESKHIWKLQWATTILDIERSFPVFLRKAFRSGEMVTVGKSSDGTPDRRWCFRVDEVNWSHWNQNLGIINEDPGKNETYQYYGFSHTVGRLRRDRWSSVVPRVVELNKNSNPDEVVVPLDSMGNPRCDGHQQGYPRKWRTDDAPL
T4 sequence (Q8NER1 whole entry): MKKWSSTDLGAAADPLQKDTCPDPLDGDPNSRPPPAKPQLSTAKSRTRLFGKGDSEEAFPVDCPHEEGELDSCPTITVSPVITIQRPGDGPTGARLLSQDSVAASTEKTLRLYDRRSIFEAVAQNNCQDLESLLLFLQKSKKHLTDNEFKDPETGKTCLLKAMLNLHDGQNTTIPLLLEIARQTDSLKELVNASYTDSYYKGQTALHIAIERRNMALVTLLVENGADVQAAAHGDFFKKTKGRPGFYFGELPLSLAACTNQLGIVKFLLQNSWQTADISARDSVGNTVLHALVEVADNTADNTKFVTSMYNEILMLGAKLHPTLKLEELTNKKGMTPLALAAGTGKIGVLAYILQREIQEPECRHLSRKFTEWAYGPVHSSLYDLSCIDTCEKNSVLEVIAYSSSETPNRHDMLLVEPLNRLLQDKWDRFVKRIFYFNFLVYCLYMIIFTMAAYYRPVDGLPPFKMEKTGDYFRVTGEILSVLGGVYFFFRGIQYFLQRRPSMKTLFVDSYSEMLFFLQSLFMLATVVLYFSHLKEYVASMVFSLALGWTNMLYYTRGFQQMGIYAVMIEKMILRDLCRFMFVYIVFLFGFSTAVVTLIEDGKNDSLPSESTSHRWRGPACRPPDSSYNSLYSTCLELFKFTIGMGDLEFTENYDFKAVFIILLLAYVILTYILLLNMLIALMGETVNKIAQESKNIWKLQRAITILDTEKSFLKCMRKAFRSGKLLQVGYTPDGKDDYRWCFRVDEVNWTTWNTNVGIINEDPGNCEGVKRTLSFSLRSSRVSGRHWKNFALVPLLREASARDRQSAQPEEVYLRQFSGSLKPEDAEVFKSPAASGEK
T6 sequence (Q9Y2T6 whole entry): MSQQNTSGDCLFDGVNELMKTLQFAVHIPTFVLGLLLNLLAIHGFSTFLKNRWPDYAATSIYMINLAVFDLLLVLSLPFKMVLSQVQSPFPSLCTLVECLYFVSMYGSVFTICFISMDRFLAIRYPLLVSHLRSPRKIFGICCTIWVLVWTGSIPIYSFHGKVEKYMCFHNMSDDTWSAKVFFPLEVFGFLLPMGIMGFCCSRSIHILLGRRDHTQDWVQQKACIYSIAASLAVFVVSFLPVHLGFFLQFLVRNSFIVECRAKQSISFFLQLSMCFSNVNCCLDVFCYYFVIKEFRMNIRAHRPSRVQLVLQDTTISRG
Chain of Transient receptor potential cation channel subfamily V member 6 (Q9H1D0 whole entry): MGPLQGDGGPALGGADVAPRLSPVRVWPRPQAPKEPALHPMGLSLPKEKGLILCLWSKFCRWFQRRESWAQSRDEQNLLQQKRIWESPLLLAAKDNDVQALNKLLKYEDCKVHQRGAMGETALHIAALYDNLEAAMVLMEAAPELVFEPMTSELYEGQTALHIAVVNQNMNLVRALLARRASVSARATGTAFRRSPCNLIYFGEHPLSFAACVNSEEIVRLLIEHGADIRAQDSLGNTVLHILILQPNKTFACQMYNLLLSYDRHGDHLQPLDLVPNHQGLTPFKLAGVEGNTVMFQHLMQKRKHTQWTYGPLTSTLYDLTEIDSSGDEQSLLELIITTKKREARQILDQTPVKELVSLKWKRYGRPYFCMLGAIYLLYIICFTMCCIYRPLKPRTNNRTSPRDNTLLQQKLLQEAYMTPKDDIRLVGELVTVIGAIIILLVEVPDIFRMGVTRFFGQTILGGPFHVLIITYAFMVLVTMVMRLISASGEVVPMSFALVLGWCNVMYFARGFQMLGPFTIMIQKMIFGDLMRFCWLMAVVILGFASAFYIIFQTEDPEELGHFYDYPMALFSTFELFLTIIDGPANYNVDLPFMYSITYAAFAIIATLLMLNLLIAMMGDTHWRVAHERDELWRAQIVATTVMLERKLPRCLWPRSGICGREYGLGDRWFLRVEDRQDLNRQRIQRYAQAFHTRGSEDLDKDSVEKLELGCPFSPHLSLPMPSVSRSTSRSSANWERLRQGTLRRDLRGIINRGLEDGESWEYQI
Chain of 5-hydroxytryptamine receptor 1A (Rattus norvegicus, UniProt P19327) (P19327 whole entry): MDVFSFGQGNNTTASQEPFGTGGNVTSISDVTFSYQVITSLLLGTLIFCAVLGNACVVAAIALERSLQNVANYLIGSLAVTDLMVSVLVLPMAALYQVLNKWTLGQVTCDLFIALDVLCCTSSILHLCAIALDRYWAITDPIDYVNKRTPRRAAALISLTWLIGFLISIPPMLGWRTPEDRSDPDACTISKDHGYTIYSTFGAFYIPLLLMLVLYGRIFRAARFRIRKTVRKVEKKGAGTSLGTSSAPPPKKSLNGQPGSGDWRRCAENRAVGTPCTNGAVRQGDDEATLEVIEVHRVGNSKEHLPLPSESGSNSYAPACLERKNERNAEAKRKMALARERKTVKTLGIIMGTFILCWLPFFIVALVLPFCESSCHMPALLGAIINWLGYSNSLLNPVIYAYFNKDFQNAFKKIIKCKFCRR
Chain of 5-hydroxytryptamine receptor 1A (Rattus norvegicus) (P19327 whole entry): as above

For `CCCc1cc(O)c2c(c1)OC(C)(C)[C@@H]1CCC(C)=C[C@@H]21` [TETRAHYDROCANNABIVARIN], the EC50 (Cannabinoid receptor 2 [1]) was 38 nM, the Efficacy [2] was 134% and the IC50 [3] was 4800 nM. For the same molecule, the Efficacy [4] was 60%, the IC50 [5] was 20 nM and the IC50 [6] was 3070 nM. It also gave an IC50 [7] of 9400 nM, an IC50 [8] of 1300 nM and an EC50 [9] of 28 nM. For the same molecule, the Efficacy (Cannabinoid receptor 2 [10]) was 40%, the EC50 [11] was 1500 nM and the Efficacy [12] was 243%. The IC50 [13] was 3200 nM, the EC50 [14] was 6400 nM and the IC50 [15] was 870 nM. It also gave an EC50 [16] of 70 nM, an Efficacy [17] of 74% and an EC50 [18] of 880 nM. For the same molecule, the Ki (Cannabinoid receptor 1 [19]) was 1000 nM, the EC50 (Cannabinoid receptor 2 [20]) was 98 nM and the Efficacy [21] was 68%. The Efficacy [22] was 72%, the EC50 [23] was 1500 nM and the IC50 [24] was 3000 nM. For the same molecule, the EC50 [25] was 5.4 nM, the IC50 [26] was 800 nM and the Efficacy [27] was 35%. The EC50 [28] was 3800 nM, the Efficacy [29] was 61% and the EC50 (Cannabinoid receptor 1 [30]) was 12700 nM. It also gave an inhibition (Cannabinoid receptor 2 [31]) of 0.143%, an EC50 [32] of 4100 nM and an EC50 [33] of 200 nM.
